System: potato tuber pieces containing at least one active meristem (wild-type and tps)
Test: Sprouting of cut tuber pieces incubated on gibberellic acid solutions
Type: in vivo, Solanum tuberosum Var. Kardal
Conditions: 1, 10 or 1000 ppm solution, 10 min incubation
Description: Pat-TPS plants (Var. […]) derived from tissue culture plants were grown in the phytochamber under 500 μmol quanta m-2 s-1 (16 h light, 20° C.; 8 h dark (15° C.)). Tubers were harvested after three months and stored in the cold (4° C.) for 2 months. Three days after transfer to room temperature (RT), tuber pieces were cut with a knife containing at least one active meristem (eye). Cut pieces originating from 3-10 tubers per line were washed for 15 min in tap water. Approximately 6-10 pieces were subsequently incubated for 10 min on either water or on a 1, 10 or 1000 ppm solution of gibberellic acid (GA3, SIGMA, Zwijndrecht, Netherlands). All pieces from one treatment were transferred to containers onto wet paper tissue and covered with a plastic top to prevent drying out.

C=C1C[C@]23C[C@@]1(O)CC[C@H]2[C@@]12C=C[C@H](O)[C@@](C)(C(=O)O1)[C@H]2[C@@H]3C(=O)O [GA3, gibberellic acid]
time until sprouting occurred (tps tuber pieces): ≤ 4 days | time until sprouting occurred (wild-type tuber pieces): ≤ 4 days

Reference: patent publication US20030233678A1, “Pre- and post-harvest inhibition of remobilisation of storage compounds” (Mogen International N.V., priority 1997, published 2003)
